Results published in ChEMBL document CHEMBL1201862, “PubChem BioAssay data set” (2004).
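In this assay, cells in 96-well plates receive the compound at five concentrations for 48 hours. Endpoints are linearly interpolated between the surrounding concentrations. At the GI50, growth is halved.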 Active and inactive are the calls of the source. No stated cut-off is given here; in the data, active = GI50 up to about 1.1 µM and inactive = higher.

Key:
Experiment in all cases: NCI anticancer screen, dose series, 48 h
IGROV-1 = system: IGROV-1
T47D = system: T47D
SN12C = system: SN12C
Malme-3M = system: Malme-3M
OVCAR-5 = system: OVCAR-5
UO-31 = system: UO-31
MCF7 = system: MCF7
U-251 = system: U-251
BT-549 = system: BT-549
HT-29 = system: HT-29
SNB-19 = system: SNB-19
SW-620 = system: SW-620
OVCAR-8 = system: OVCAR-8
SK-OV-3 = system: SK-OV-3
786-0 = system: 786-0
RXF 393 = system: RXF 393
UACC-62 = system: UACC-62
XF498 = system: XF498
HCC 2998 = system: HCC 2998
COLO 205 = system: COLO 205

Row | SMILES | GI50 (IGROV-1) | GI50 (T47D) | GI50 (SN12C) | GI50 (Malme-3M) | GI50 (OVCAR-5) | GI50 (UO-31) | GI50 (MCF7) | GI50 (U-251) | GI50 (BT-549) | GI50 (HT-29) | GI50 (SNB-19) | GI50 (SW-620) | GI50 (OVCAR-8) | GI50 (SK-OV-3) | GI50 (786-0) | GI50 (RXF 393) | GI50 (UACC-62) | GI50 (XF498) | GI50 (HCC 2998) | GI50 (COLO 205)
1 | COC1C(OC(=O)/C=C/C=C/C=C/C=C/C(=O)O)CCC2(CO2)C1C1(C)OC1CC=C(C)C (configuration not stated) | 46.3 µM (inactive) | 18.4 µM (inactive) | 28.1 µM (inactive) | 26.2 µM (inactive) | > 78.2 µM (inactive) | 24.5 µM (inactive) | 25.1 µM (inactive) | 18.5 µM (inactive) | 21.6 µM (inactive) | 21.1 µM (inactive) | > 56.1 µM (inactive) | 21 µM (inactive) | 29.3 µM (inactive) | > 59.6 µM (inactive) | 20.5 µM (inactive) | 48.8 µM (inactive) | 16.1 µM (inactive) | 30.8 µM (inactive) | 26 µM (inactive) | 12.4 µM (inactive)
2 | CC1=C(N2CC2)C(=O)C(C)=C(N2CC2)C1=O | 0.215 µM (active) | 0.208 µM (active) | 0.113 µM (active) | 0.204 µM (active) | 0.296 µM (active) | 0.0912 µM (active) | 0.0212 µM (active) | 0.152 µM (active) | 0.417 µM (active) | 0.175 µM (active) | 0.348 µM (active) | 0.143 µM (active) | 0.188 µM (active) | 0.31 µM (active) | 0.0702 µM (active) | 0.151 µM (active) | 0.0579 µM (active) | 0.132 µM (active) | 0.161 µM (active) | 0.206 µM (active)
3 | Cn1c(=O)nc2n(-c3ccc(F)c(F)c3)c3ccccc3nc-2c1=O | 15.2 µM (inactive) | – | 17.6 µM (inactive) | 11.3 µM (inactive) | 22.3 µM (inactive) | 37.9 µM (inactive) | – | 14.7 µM (inactive) | – | 4.03 µM (inactive) | 15.7 µM (inactive) | 7.85 µM (inactive) | 13.2 µM (inactive) | > 100 µM (inactive) | 32.7 µM (inactive) | 28.2 µM (inactive) | 2.4 µM (inactive) | 21.7 µM (inactive) | 4.89 µM (inactive) | 4.08 µM (inactive)
